Assay results taken from publication PMC12627007, “HIV nucleocapsid proteins as targets for novel 1,2-benzisothiazol-3(2H)-one benzenesulfonamides: synthesis and antiretroviral activity” (Frontiers in Microbiology, 2025).
Like-named read-outs stand apart in the source and are kept apart here.

How the values were obtained:
[1] = Cytotoxicity in mock-infected MT-4 cells (MTT method); assay type: cell-based; conditions: human
Experimental: The activity of the test compounds against the replication of HIV-1 wt and mutant strains (N119, A17, EFV^R, AZT^R, MDR, SAQ^R) and HIV-2 wt in acutely infected cells was based on the inhibition of virus-induced cytopathogenicity in MT-4 and C8166 cells, respectively. Briefly, 50 μL of culture medium containing 1 × 10^4 cells was added to each well of flat-bottom microtitre trays containing 50 μL of culture medium with or without different serial concentrations of test compounds. Then, 20 μL of an HIV suspension (containing the appropriate amount of CCID50 required to cause complete cytopathogenicity on day 4, final multiplicity of infection [m.o.i.] 0.01) was added. After incubation at 37 °C, cell viability was determined using the […] (MTT) method ([Pauwels et al., 1988]). The cytotoxicity of the test compounds was evaluated in parallel with their antiviral activity through the viability of mock-infected, treated cells, as monitored by the MTT method and described elsewhere ([Morellet et al., 1994]).

[2] = microbe, parasite or virus in culture; assay type: cell-based, HIV-1; conditions: all tested strains (HIV-1 wt, mutants, HIV-2)
Experimental: (§1) HIV-1IIIB and HIV-2 CBL-20 strains were obtained from the supernatants of persistently infected H9/IIIB and CEM cells, respectively. HIV-1 and HIV-2 stock solutions had titres of 4.5 × 10^7 and 1.4 × 10^6 50% cell culture infectious doses (CCID50)/ml, respectively. […] The K103R + V179D + P225H mutant (EFVR) was derived from an IIIB strain passaged in MT-4 cells in the presence of Efavirenz (up to 2 μM). N119, A17 and EFV^R stock solutions had titres of 1.2 × 10^8, 2.1 × 10^7, and 4.0 × 10^7 CCID50/ml, respectively.
(§2) The activity of the test compounds against the replication of HIV-1 wt and mutant strains (N119, A17, EFV^R, AZT^R, MDR, SAQ^R) and HIV-2 wt in acutely infected cells was based on the inhibition of virus-induced cytopathogenicity in MT-4 and C8166 cells, respectively. Briefly, 50 μL of culture medium containing 1 × 10^4 cells was added to each well of flat-bottom microtitre trays containing 50 μL of culture medium with or without different serial concentrations of test compounds. Then, 20 μL of an HIV suspension (containing the appropriate amount of CCID50 required to cause complete cytopathogenicity on day 4, final multiplicity of infection [m.o.i.] 0.01) was added.

[3] = tested on: HIV-1 IIIB strain; assay: microbe, parasite or virus in culture; assay type: cell-based; conditions: for EC50: Human immunodeficiency virus 1, IIIB
Experimental: as §1, §2

[4] = tested on: HIV-1 N119 (Y181C); assay: Inhibition of virus-induced cytopathogenicity in MT-4 cells, NNRTI-resistant mutant N119; assay type: cell-based; conditions: for EC50: Human immunodeficiency virus 1, MT4, read-out: EC50 N119
Experimental: as §1, §2

[5] = tested on: HIV-1 A17 (K103N + Y181C); assay: Inhibition of virus-induced cytopathogenicity in MT-4 cells, NNRTI-resistant mutant A17; assay type: cell-based; conditions: for EC50: Human immunodeficiency virus 1, MT4, read-out: EC50 A17
Experimental: as §1, §2

[6] = tested on: HIV-1 EFVR (K103R + V179D + P225H); assay: Inhibition of virus-induced cytopathogenicity in MT-4 cells, NNRTI-resistant mutant EFVR; assay type: cell-based; conditions: for EC50: Human immunodeficiency virus 1, MT4, read-out: EC50 EFVR
Experimental: as §1, §2

[7] = tested on: HIV-1 AZTR (67N, 70R, 215F, 219Q); assay: Inhibition of virus-induced cytopathogenicity in MT-4 cells, NRTI-resistant mutant AZTR; assay type: cell-based; conditions: for EC50: Human immunodeficiency virus 1, MT4, read-out: EC50 AZTR
Experimental: as §1, §2

[8] = tested on: HIV-1 MDR (74V, 41L, 106A, 215Y); assay: Inhibition of virus-induced cytopathogenicity in MT-4 cells, NRTI-resistant mutant MDR; assay type: cell-based; conditions: for EC50: Human immunodeficiency virus 1, MT4, read-out: EC50 MDR
Experimental: as §1, §2

[9] = tested on: HIV-1 SAQR (L10F, G48V, L90M); assay: Inhibition of virus-induced cytopathogenicity in MT-4 cells, PRI-resistant mutant SAQR; assay type: cell-based; conditions: for EC50: Human immunodeficiency virus 1, MT4, read-out: EC50 SAQR
Experimental: as §1, §2

[10] = tested on: HIV-2 CBL-20 strain; assay: Inhibition of HIV-2-induced cytopathogenicity in C8166 cells (MTT); assay type: cell-based
Experimental: as §1, §2

[11] = molecular target: T1, HIV-1 reverse transcriptase (Human immunodeficiency virus type 1 group M subtype B, UniProt P04585); assay: Reverse transcriptase enzyme assay; assay type: biochemical
T1 construct: recombinant HIV-1 reverse transcriptase

[12] = molecular target: T2, HIV-1 recombinant integrase (rIN) (Human immunodeficiency virus type 1 group M subtype B, UniProt P04585); assay: Integrase (rIN) enzyme assays: 3'-processing and strand transfer; assay type: biochemical; conditions: for IC50: recombinant HIV-1 integrase
T2 construct: HIV-1 recombinant integrase (rIN); made in house
Excerpt: ^aCompound concentration (µM) required to reduce the amount of 3’-end-labeled duplex of 21/19mers substrates, in 3’-processing and strand-transfer reactions catalyzed by the recombinant HIV-1 integrase, by 50%. Data represent mean values for three independent determinations.

[13] = tested on: chronically HIV-1-infected H9 cells / uninfected C8166 cells; assay: Syncytium formation in chronically infected H9/C8166 cocultures (entry assay); assay type: cell-based; conditions: 36 h
Experimental: Chronically infected H9 cells were washed and cocultured with uninfected C8166 cells (ratio 1:500) in the absence or presence of test inhibitors. Following 36 h of incubation at 37 °C, cocultures were monitored by optical microscopy, syncytia were counted, and those found in drug-treated cocultures were reported as a percentage of those counted in untreated cocultures ([Wang et al., 2004]).
In this assay, syncytia were formed as a result of the interaction of env-encoded glycoproteins (present on the outer membrane of chronically infected H9 cells) with the CD4 of cocultured C8166 cells.
Figure 3 Comparative activity of compound 6 (30 μM) and dextran sulphate (0.5 μM) in preventing syncytium formation in chronically infected H9/C8166 cocultures. The H9/C8166 ratio was […]. The cells were incubated for 36 h at 37 °C. Data represent mean values of at least three independent determinations of syncytial numbers using an optical microscope. Bars are mean values, and whiskers are standard deviations (SD) of at least three independent experiments.

[14] = tested on: HIV-1 wt; assay: Time of addition assay in MT-4 cells; assay type: cell-based; conditions: compound 6 15 μM, EFV 0.05 μM; MT-4, m.o.i. 5
Experimental: 2 × 10^4 MT-4 cells were infected for 1 h at 20 °C with HIV-1 at a high multiplicity of infection (m.o.i. = 5), corresponding to 5 cell culture infectious dose 50 per cell (CCID50/cell).
(§3) Titration was performed in C8166 cells using the standard limiting dilution method (dilution 1:2, four replica wells/dilution) in 96-well plates.
Virus yields were determined using the Reed–Muench method. Bars are mean values, and whiskers are standard deviations (SD) of three independent experiments.

[15] = tested on: cell-free HIV-1; assay: Virucidal activity against cell-free HIV-1 (Reed-Muench titration); assay type: cell-based; conditions: for Infectivity inactivation of cell-free HIV-1: 37 °C
Experimental: (§4) Cell-free, high-titre HIV-1 and HIV-2 stock solutions were exposed to the test compounds for 2 h at 0 °C or 37 °C. At the end of incubation, residual infectivity was determined using the Reed–Muench end-point titration method, as described below.
as §3

[16] = tested on: cell-free HIV-2; assay: Virucidal activity against cell-free HIV-2 (Reed-Muench titration); assay type: cell-based
Experimental: as §4, §3

[17] = MT4, read-out: EC50 HIV-1 (Table 2)
[18] = Human immunodeficiency virus 2, C8166, read-out: EC50 HIV-2
[19] = Human immunodeficiency virus 2, C8166, read-out: EC50 HIV-2 (Table 2)
[20] = 0 °C, compound 6 80 μM, AMPH-B 100 μM

## O=c1c2ccccc2sn1NS(=O)(=O)c1ccccc1 [Compound 6, N-(3-Oxo-1,2-benzisothiazol-2(3H)-yl)benzenesulfonamide]
[1]
  CC50 at 4 days: 86 ± 4 µM
[2]
  Selectivity Index (SI) against all tested strains: around 10
[3]; MT4, read-out: EC50 HIV-1
  EC50: 8 ± 3 µM
[3]; [17]
  EC50: 8 ± 3 µM
[3]; IIIB strain, in round brackets
  Selectivity Index (SI = CC50/EC50) HIV-1: 10
[4]
  EC50: 7 ± 1.5 µM
[4]; in round brackets
  Selectivity Index (SI = CC50/EC50) N119: 12
[5]
  EC50: 8 ± 1 µM
[5]; in round brackets
  Selectivity Index (SI = CC50/EC50) A17: 10
[6]
  EC50: 7 ± 2 µM
[6]; in round brackets
  Selectivity Index (SI = CC50/EC50) EFVR: 12
[7]
  EC50: 6 ± 0.7 µM
[7]; in round brackets
  Selectivity Index (SI = CC50/EC50) AZTR: 14
[8]
  EC50: 4 ± 1.5 µM
[8]; in round brackets
  Selectivity Index (SI = CC50/EC50) MDR: 21
[9]
  EC50: 8 ± 0.7 µM
[9]; in round brackets
  Selectivity Index (SI = CC50/EC50) SAQR: 10
[10]; [18]
  EC50: 7 ± 0.7 µM
[10]; [19]
  EC50: 7 ± 0.7 µM
[10]; in round brackets
  Selectivity Index (SI = CC50/EC50) HIV-2: 12
[11]; at concentrations of 30 μM
  Inhibition of recombinant HIV-1 RT: none of the benzenesulfonamides were active
[11]; virion-associated RT
  IC50: > 30 µM
[12]; at concentrations of 30 μM
  Inhibition of recombinant HIV-1 IN: none of the benzenesulfonamides were active
[12]; read-out: IC50 3'-Processing
  IC50: > 30 µM
[12]; read-out: IC50 Strand-transfer
  IC50: > 30 µM
[13]; 30 μM
  Interference with syncytia formation / very early events (adsorption/attachment/fusion): did not interfere
[14]
  Infectious virus yield when compound present only during the 1-h infection period: infectious virus yield similar to that of the untreated infected controls
  Time of addition p.i. up to which the compound still prevents virus yield: up to 12 h
[15]; [20]
  Effect on HIV-1 infectivity, incubation at 0 °C: failed to affect HIV-1 infectivity
[15]; 25 and 12.5 μM
  Infectivity inactivation of cell-free HIV-1: only marginal or no effects
[15]; 100 and 50 μM
  Infectivity inactivation of cell-free HIV-1: strongly inactivated the infectivity
[15]; 2 h at 37 °C, compound 6 80 μM, AMPH-B 100 μM
  Inactivation of HIV-1 infectivity: more than 3 log10
[16]; [20]
  Effect on HIV-2 infectivity, incubation at 0 °C: failed to significantly affect HIV-2 infectivity
[16]; 25 and 12.5 μM, 37 °C
  Infectivity inactivation of cell-free HIV-2: only marginal or no effects
[16]; 37 °C, compound 6 80 μM, AMPH-B 100 μM
  Inactivation of HIV-2 virion infectivity: approximately 2 log10
[16]; 100 and 50 μM, 37 °C
  Infectivity inactivation of cell-free HIV-2: strongly inactivated the infectivity

## O=C1Nc2ccc(Cl)cc2[C@@](C#CC2CC2)(C(F)(F)F)O1 [EFV, efavirenz, reference compound]
[1]; MT-4, MTT method
  CC50 at 4 days: 30 ± 5 µM
[3]; MT4, read-out: EC50 HIV-1
  EC50: 0.002 ± 0.0003 µM
[3]; [17]
  EC50: 0.002 ± 0.0003 µM
[4]
  EC50: 0.008 ± 0.003 µM
[5]
  EC50: 0.3 ± 0.009 µM
[6]
  EC50: 3 ± 1 µM
[7]
  EC50: 0.002 ± 0.0003 µM
[8]
  EC50: 0.004 µM
[9]
  EC50: 0.007 ± 0.005 µM
[10]; [18]
  EC50: > 20 µM
[10]; [19]
  EC50: > 20 µM
[14]
  Infectious virus yield when compound present only during the 1-h infection period: infectious virus yield similar to that of the untreated infected controls
  Time of addition p.i. up to which the compound still prevents virus yield: ≤ 4 h

## dextran sulphate [reference compound]
[13]; 0.5 μM
  Prevention of syncytia formation: 98%
